In patent publication US12037305B2, “Calcium salt polymorphs as anti-inflammatory, immunomodulatory and anti-proliferative agents” (Immunic AG, priority 2018, dated 2024):
Structures can show the parent of a compound that is named as a salt.

Key:
Human T-Cells = test: Proliferation assay of human T-cells (PHA-stimulated PBMC, BrdU ELISA); type: cell-based; settings: T-cell, PHA 20 μg/ml, 48 hours
Procedure: Human peripheral blood mononuclear cells (PBMC) were obtained from healthy volunteers and transferred to RPMI1640 cell culture medium containing 10% dialyzed fetal calf serum. 80.000 cells per well were pipetted into a 96-well plate and phytohemagglutinin (PHA) was added in phosphate buffered saline to a final concentration of 20 μg/ml to stimulate T-cell proliferation. Vidofludimus was added in dimethyl sulfoxide (DMSO, final concentration: 0.1 Vol %) to final concentrations ranging from 20 nM to 50 μM. After incubation for 48 hours, cell proliferation was quantified using the “cell proliferation ELISA BrdU” (Roche) according to the manufacturer's instructions. Half maximal inhibition (IC50) was calculated using a 4-parameter sigmoidal curve fit.

[1] = Dynamic vapor sorption (DVS); type: physicochemical
From the text: DVS (SMS): Surface Measurement Systems Ltd. DVS-1 water vapour sorption analyzer. The sample is placed on a platinum sample pan and allowed to equilibrate at a given relative humidity (r.h.), usually 50% r.h. Then, a pre-defined humidity program was started with a scanning rate of 5% r.h. change per hour. First step: from 50% r.h. to 0% r.h. (in case of a possibly hydrate as starting material 50 to 95% r.h.), second step: from 0% to 95% r.h. (in case of a possibly hydrate as starting material 95 to 0% r.h.)

| water uptake ([1]; at 95% r.h. (not reversible)) | water uptake ([1]; at about 85% r.h., after desolvation) | Compound | IC50 (Human T-Cells) |
| --- | --- | --- | --- |
|  |  | COc1cccc(-c2ccc(NC(=O)C3=C(C(=O)O)CCC3)c(F)c2)c1 [Vidofludimus, 2-(3-Fluoro-3′-methoxy-biphenyl-4-ylcarbamoyl)-cyclopent-1-enecarboxylic acid] | 4.1 µM |
| 0.4% | 0.3% | COc1cccc(-c2ccc(NC(=O)C3=C(C(=O)O)CCC3)c(F)c2)c1 [Calcium salt] |  |
